# Calls of active or inactive are those of the source. No rule for the calls is given here.
# Test system: rodent lifetime carcinogenesis bioassay, tumor incidence TD50
# Assay: carcinogenic potency in animals, long-term in vivo studies, CPDB compilation (AID 1745844)
smiles,measurement,setting,value
C=CCOC(=O)CC(C)C,TD50,"mouse, strain B6C3F1, females, by gavage, site: all sites, lesion: malignant lymphoma, histiocytic type + malignant lymphoma, mixed type + malignant lymphoma, lymphocytic type, dosed 103 weeks, study length 106 weeks",62.8 mg/kg/day
same,TD50,"mouse, strain B6C3F1, females, by gavage, site: all sites, lesion: malignant lymphoma, histiocytic type, dosed 103 weeks, study length 106 weeks",238 mg/kg/day
same,TD50,"mouse, strain B6C3F1, females, by gavage, site: all sites, lesion: malignant lymphoma, mixed type, dosed 103 weeks, study length 106 weeks",102 mg/kg/day
same,TD50,"mouse, strain B6C3F1, females, by gavage, site: any site (literature study), lesion: several types, types named in the paper, dosed 103 weeks, study length 106 weeks",65.5 mg/kg/day
same,TD50,"mouse, strain B6C3F1, females, by gavage, site: lung, lesion: alveolar/bronchiolar adenoma + alveolar/bronchiolar carcinoma, dosed 103 weeks, study length 106 weeks",4450 mg/kg/day
same,TD50,"mouse, strain B6C3F1, males, by gavage, site: any site (literature study), lesion: several types, types named in the paper, dosed 103 weeks, study length 106 weeks",206 mg/kg/day
same,TD50,"mouse, strain B6C3F1, males, by gavage, site: gastric mucosa, lesion: squamous-cell papilloma, dosed 103 weeks, study length 106 weeks",295 mg/kg/day (inactive)
same,TD50,"rat, strain Fischer 344, females, by gavage, site: any site (literature study), lesion: several types, types named in the paper, dosed 103 weeks, study length 106 weeks",43.5 mg/kg/day (inactive)
same,TD50,"rat, strain Fischer 344, males, by gavage, site: all sites, lesion: monocytic leukemia + malignant lymphoma, histiocytic type, dosed 103 weeks, study length 106 weeks",123 mg/kg/day
same,TD50,"rat, strain Fischer 344, males, by gavage, site: all sites, lesion: monocytic leukemia, dosed 103 weeks, study length 106 weeks",149 mg/kg/day
same,TD50,"rat, strain Fischer 344, males, by gavage, site: any site (literature study), lesion: several types, types named in the paper, dosed 103 weeks, study length 106 weeks",50.5 mg/kg/day
same,TD50,"rat, strain Fischer 344, males, by gavage, site: liver, lesion: hepatocellular adenoma + hepatocellular carcinoma + neoplastic nodule, dosed 103 weeks, study length 106 weeks",264 mg/kg/day
same,TD50,"rat, strain Fischer 344, males, by gavage, site: preputial gland, lesion: adenoma, NOS + carcinoma, NOS + squamous-cell carcinoma, dosed 103 weeks, study length 106 weeks",136 mg/kg/day
Oc1ccc2c(c1)OCO2,TD50,"mouse, strain B6C3F1, females, in feed, site: forestomach, lesion: sarcoma, dosed 96 weeks, study length 96 weeks",44800 mg/kg/day
same,TD50,"mouse, strain B6C3F1, females, in feed, site: forestomach, lesion: squamous-cell carcinoma, dosed 96 weeks, study length 96 weeks",8330 mg/kg/day
same,TD50,"mouse, strain B6C3F1, females, in feed, site: liver, lesion: hyperplastic nodule, dosed 96 weeks, study length 96 weeks",44800 mg/kg/day
same,TD50,"mouse, strain B6C3F1, males, in feed, site: forestomach, lesion: squamous-cell carcinoma, dosed 96 weeks, study length 96 weeks",3070 mg/kg/day
same,TD50,"mouse, strain B6C3F1, males, in feed, site: lung, lesion: adenoma, dosed 96 weeks, study length 96 weeks",41300 mg/kg/day
same,TD50,"mouse, strain B6C3F1, males, in feed, site: stomach, glandular, lesion: sarcoma, dosed 96 weeks, study length 96 weeks",41300 mg/kg/day
same,TD50,"rat, strain F344/DuCrj, females, in feed, site: forestomach, lesion: papilloma, dosed 104 weeks, study length 104 weeks",1090 mg/kg/day
same,TD50,"rat, strain F344/DuCrj, females, in feed, site: forestomach, lesion: squamous-cell carcinoma, dosed 104 weeks, study length 104 weeks",6500 mg/kg/day
same,TD50,"rat, strain F344/DuCrj, males, in feed, site: forestomach, lesion: papilloma, dosed 104 weeks, study length 104 weeks",1350 mg/kg/day
same,TD50,"rat, strain F344/DuCrj, males, in feed, site: forestomach, lesion: several types, types named in the paper, dosed 60 weeks, study length 60 weeks",708 mg/kg/day
same,TD50,"rat, strain F344/DuCrj, males, in feed, site: forestomach, lesion: squamous-cell carcinoma, dosed 60 weeks, study length 60 weeks",3920 mg/kg/day
same,TD50,"rat, strain F344/DuCrj, males, in feed, site: forestomach, lesion: squamous-cell carcinoma, dosed 104 weeks, study length 104 weeks",1540 mg/kg/day
same,TD50,"rat, strain F344/DuCrj, males, in feed, site: forestomach, lesion: squamous-cell papilloma, dosed 60 weeks, study length 60 weeks",909 mg/kg/day
same,TD50,"rat, strain F344/DuCrj, males, in feed, site: stomach, glandular, lesion: adenoma, dosed 104 weeks, study length 104 weeks",16200 mg/kg/day
c1ccc(C2CO2)cc1 (centres undefined),TD50,"mouse, strain B6C3F1, females, by gavage, site: forestomach, lesion: several types, types named in the paper, dosed 104 weeks, study length 107 weeks",172 mg/kg/day
same,TD50,"mouse, strain B6C3F1, females, by gavage, site: forestomach, lesion: squamous-cell carcinoma, dosed 104 weeks, study length 107 weeks",505 mg/kg/day
same,TD50,"mouse, strain B6C3F1, females, by gavage, site: forestomach, lesion: squamous-cell papilloma, dosed 104 weeks, study length 107 weeks",460 mg/kg/day
same,TD50,"mouse, strain B6C3F1, females, by gavage, site: liver, lesion: several types, types named in the paper, dosed 104 weeks, study length 107 weeks",5960 mg/kg/day
same,TD50,"mouse, strain B6C3F1, males, by gavage, site: forestomach, lesion: several types, types named in the paper, dosed 104 weeks, study length 107 weeks",90 mg/kg/day
same,TD50,"mouse, strain B6C3F1, males, by gavage, site: forestomach, lesion: squamous-cell carcinoma, dosed 104 weeks, study length 107 weeks",475 mg/kg/day
same,TD50,"mouse, strain B6C3F1, males, by gavage, site: forestomach, lesion: squamous-cell papilloma, dosed 104 weeks, study length 107 weeks",215 mg/kg/day
same,TD50,"mouse, strain B6C3F1, males, by gavage, site: liver, lesion: several types, types named in the paper, dosed 104 weeks, study length 107 weeks",223 mg/kg/day
same,TD50,"rat, strain Fischer 344, females, by gavage, site: forestomach, lesion: several types, types named in the paper, dosed 104 weeks, study length 107 weeks",42.9 mg/kg/day
same,TD50,"rat, strain Fischer 344, females, by gavage, site: forestomach, lesion: squamous-cell carcinoma, dosed 104 weeks, study length 107 weeks",114 mg/kg/day
same,TD50,"rat, strain Fischer 344, females, by gavage, site: forestomach, lesion: squamous-cell papilloma, dosed 104 weeks, study length 107 weeks",217 mg/kg/day
same,TD50,"rat, strain Fischer 344, males, by gavage, site: forestomach, lesion: several types, types named in the paper, dosed 104 weeks, study length 107 weeks",30.7 mg/kg/day
same,TD50,"rat, strain Fischer 344, males, by gavage, site: forestomach, lesion: squamous-cell carcinoma, dosed 104 weeks, study length 107 weeks",81.6 mg/kg/day
same,TD50,"rat, strain Fischer 344, males, by gavage, site: forestomach, lesion: squamous-cell papilloma, dosed 104 weeks, study length 107 weeks",146 mg/kg/day
same,TD50,"rat, strain Fischer 344, males, by gavage, site: liver, lesion: neoplastic nodule, dosed 104 weeks, study length 107 weeks",10300 mg/kg/day
same,TD50,"rat, strain Sprague-Dawley, females, by gavage, site: any site (literature study), lesion: malignant tumor, dosed 52 weeks, study length 156 weeks",166 mg/kg/day
same,TD50,"rat, strain Sprague-Dawley, females, by gavage, site: any site (literature study), lesion: several types, types named in the paper, dosed 52 weeks, study length 156 weeks",164 mg/kg/day
same,TD50,"rat, strain Sprague-Dawley, females, by gavage, site: forestomach, lesion: benign tumor, dosed 52 weeks, study length 156 weeks",503 mg/kg/day
same,TD50,"rat, strain Sprague-Dawley, females, by gavage, site: forestomach, lesion: several types, types named in the paper, dosed 52 weeks, study length 156 weeks",96.5 mg/kg/day
same,TD50,"rat, strain Sprague-Dawley, females, by gavage, site: forestomach, lesion: squamous-cell carcinoma, in situ, dosed 52 weeks, study length 156 weeks",129 mg/kg/day
same,TD50,"rat, strain Sprague-Dawley, females, by gavage, site: forestomach, lesion: squamous-cell carcinoma, invasive, dosed 52 weeks, study length 156 weeks",301 mg/kg/day
same,TD50,"rat, strain Sprague-Dawley, females, by gavage, site: forestomach, lesion: squamous-cell carcinoma, dosed 52 weeks, study length 156 weeks",102 mg/kg/day
same,TD50,"rat, strain Sprague-Dawley, males, by gavage, site: any site (literature study), lesion: malignant tumor, dosed 52 weeks, study length 156 weeks",189 mg/kg/day
same,TD50,"rat, strain Sprague-Dawley, males, by gavage, site: any site (literature study), lesion: several types, types named in the paper, dosed 52 weeks, study length 156 weeks",191 mg/kg/day
same,TD50,"rat, strain Sprague-Dawley, males, by gavage, site: forestomach, lesion: benign tumor, dosed 52 weeks, study length 156 weeks",354 mg/kg/day
same,TD50,"rat, strain Sprague-Dawley, males, by gavage, site: forestomach, lesion: several types, types named in the paper, dosed 52 weeks, study length 156 weeks",99.6 mg/kg/day
same,TD50,"rat, strain Sprague-Dawley, males, by gavage, site: forestomach, lesion: squamous-cell carcinoma, in situ, dosed 52 weeks, study length 156 weeks",140 mg/kg/day
same,TD50,"rat, strain Sprague-Dawley, males, by gavage, site: forestomach, lesion: squamous-cell carcinoma, invasive, dosed 52 weeks, study length 156 weeks",267 mg/kg/day
same,TD50,"rat, strain Sprague-Dawley, males, by gavage, site: forestomach, lesion: squamous-cell carcinoma, dosed 52 weeks, study length 156 weeks",63 mg/kg/day
CN(C)CCOC(C)(c1ccccc1)c1ccccn1 (centres undefined),TD50,"mouse, strain B6C3F1, females, in feed, site: liver, lesion: hepatocellular adenoma, dosed 104 weeks, study length 104 weeks",633 mg/kg/day
same,TD50,"mouse, strain B6C3F1, females, in feed, site: lung, lesion: alveolar/bronchiolar adenoma, dosed 65 weeks, study length 65 weeks",78.7 mg/kg/day
same,TD50,"mouse, strain B6C3F1, females, in feed, site: lung, lesion: several types, types named in the paper, dosed 104 weeks, study length 104 weeks",170 mg/kg/day
same,TD50,"mouse, strain B6C3F1, females, in feed, site: thyroid gland, lesion: follicular-cell adenoma, dosed 104 weeks, study length 104 weeks",740 mg/kg/day
same,TD50,"mouse, strain B6C3F1, females, in feed, site: thyroid gland, lesion: follicular-cell tumor, dosed 104 weeks, study length 104 weeks",672 mg/kg/day
same,TD50,"mouse, strain B6C3F1, males, in feed, site: liver, lesion: hepatocellular adenoma, dosed 65 weeks, study length 65 weeks",77.8 mg/kg/day
same,TD50,"mouse, strain B6C3F1, males, in feed, site: liver, lesion: hepatocellular adenoma, dosed 104 weeks, study length 104 weeks",144 mg/kg/day
same,TD50,"mouse, strain B6C3F1, males, in feed, site: liver, lesion: several types, types named in the paper, dosed 104 weeks, study length 104 weeks",125 mg/kg/day
same,TD50,"mouse, strain B6C3F1, males, in feed, site: lung, lesion: alveolar/bronchiolar adenoma, dosed 65 weeks, study length 65 weeks",3180 mg/kg/day
same,TD50,"mouse, strain B6C3F1, males, in feed, site: thyroid gland, lesion: follicular-cell adenoma, dosed 104 weeks, study length 104 weeks",273 mg/kg/day
same,carcinogen call,"rat, strain Fischer 344, females, in feed, site: liver, lesion: several types, types named in the paper, dosed 104 weeks, study length 104 weeks",negative (inactive)
same,TD50,"rat, strain Fischer 344, males, in feed, site: all sites, lesion: mononuclear-cell leukemia, dosed 104 weeks, study length 104 weeks",271 mg/kg/day
same,TD50,"rat, strain Fischer 344, males, in feed, site: liver, lesion: hepatocellular adenoma, dosed 65 weeks, study length 65 weeks",469 mg/kg/day
same,TD50,"rat, strain Fischer 344, males, in feed, site: liver, lesion: hepatocellular adenoma, dosed 104 weeks, study length 104 weeks",3270 mg/kg/day
same,TD50,"rat, strain Fischer 344, males, in feed, site: liver, lesion: hepatocellular carcinoma, dosed 104 weeks, study length 104 weeks",3270 mg/kg/day
same,TD50,"rat, strain Fischer 344, males, in feed, site: liver, lesion: several types, types named in the paper, dosed 104 weeks, study length 104 weeks",1610 mg/kg/day
COc1cc(/C=C/C(=O)OCCc2ccccc2)ccc1O,carcinogen call,"rat, strain Fischer 344, males, in feed, site: colon, lesion: one or several types, types not named, dosed 55 weeks, study length 55 weeks",negative (inactive)
O=C1OC(=O)c2ccccc21,carcinogen call,"mouse, strain B6C3F1, females, in feed, site: any site (literature study), lesion: several types, types named in the paper, dosed 104 weeks, study length 104 weeks",negative (inactive)
same,carcinogen call,"mouse, strain B6C3F1, males, in feed, site: any site (literature study), lesion: several types, types named in the paper, dosed 104 weeks, study length 104 weeks",negative (inactive)
same,TD50,"mouse, strain B6C3F1, males, in feed, site: liver, lesion: hepatocellular adenoma + hepatocellular carcinoma + neoplastic nodule, dosed 104 weeks, study length 104 weeks",7460 mg/kg/day
same,TD50,"rat, strain Fischer 344, females, in feed, site: any site (literature study), lesion: several types, types named in the paper, dosed 105 weeks, study length 105 weeks",4500 mg/kg/day
same,TD50,"rat, strain Fischer 344, females, in feed, site: lung, lesion: alveolar/bronchiolar adenoma, dosed 105 weeks, study length 105 weeks",6230 mg/kg/day (inactive)
same,carcinogen call,"rat, strain Fischer 344, males, in feed, site: any site (literature study), lesion: several types, types named in the paper, dosed 105 weeks, study length 105 weeks",negative (inactive)

# Source: PubChem BioAssay AID1745844 (Carcinogenic Potency Database (CPDB), 2022)
